According to ChEMBL document CHEMBL1201862, “PubChem BioAssay data set” (2004):
The source made the active and inactive calls. Peptide text beside a SMILES is read from it. * marks the point of attachment. Boc = CC(C)(C)OC(=O)*

What was measured:
Cytochrome P450 1A2 = biological target: T1, Cytochrome P450 1A2 (Homo sapiens, UniProt P05177);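 further: PubChem cytochrome P450 panel assay, CYP1A2 panel member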
T1 sequence (P05177 whole entry): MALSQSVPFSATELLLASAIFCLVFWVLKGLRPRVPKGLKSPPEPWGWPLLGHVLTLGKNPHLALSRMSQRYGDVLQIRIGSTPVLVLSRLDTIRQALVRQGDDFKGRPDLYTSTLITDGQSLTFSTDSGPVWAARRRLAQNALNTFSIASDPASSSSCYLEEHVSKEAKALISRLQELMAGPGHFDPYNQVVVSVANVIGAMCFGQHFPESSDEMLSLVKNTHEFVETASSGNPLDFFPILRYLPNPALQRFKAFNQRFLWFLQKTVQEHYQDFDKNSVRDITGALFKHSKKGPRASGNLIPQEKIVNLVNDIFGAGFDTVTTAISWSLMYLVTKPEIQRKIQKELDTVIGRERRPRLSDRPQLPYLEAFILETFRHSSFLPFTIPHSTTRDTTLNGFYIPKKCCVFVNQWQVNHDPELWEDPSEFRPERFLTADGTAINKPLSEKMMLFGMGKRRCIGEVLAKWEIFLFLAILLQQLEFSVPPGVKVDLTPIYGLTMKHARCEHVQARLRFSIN

[1] = biological target: T2, Corticotropin-releasing factor receptor 2/Corticotropin-releasing factor-binding protein (Homo sapiens, UniProt P24387+Q13324); experiment: activators of CRF receptor 2 with binding protein – uHTS hits, confirmation (AID 602473); type: functional; conditions: read-out: EC50_Mean
T2 sequence (Q13324 whole entry): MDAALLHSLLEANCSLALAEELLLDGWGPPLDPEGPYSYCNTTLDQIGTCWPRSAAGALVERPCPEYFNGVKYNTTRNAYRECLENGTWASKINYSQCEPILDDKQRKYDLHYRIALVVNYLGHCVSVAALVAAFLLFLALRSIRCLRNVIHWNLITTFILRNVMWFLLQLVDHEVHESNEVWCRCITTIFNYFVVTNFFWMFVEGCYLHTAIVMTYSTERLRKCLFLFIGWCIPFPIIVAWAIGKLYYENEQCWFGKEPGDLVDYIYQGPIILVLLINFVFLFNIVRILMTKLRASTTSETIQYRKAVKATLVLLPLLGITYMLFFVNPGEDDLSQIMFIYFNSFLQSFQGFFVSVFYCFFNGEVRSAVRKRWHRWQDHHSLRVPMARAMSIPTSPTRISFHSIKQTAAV
T2 sequence (P24387 whole entry): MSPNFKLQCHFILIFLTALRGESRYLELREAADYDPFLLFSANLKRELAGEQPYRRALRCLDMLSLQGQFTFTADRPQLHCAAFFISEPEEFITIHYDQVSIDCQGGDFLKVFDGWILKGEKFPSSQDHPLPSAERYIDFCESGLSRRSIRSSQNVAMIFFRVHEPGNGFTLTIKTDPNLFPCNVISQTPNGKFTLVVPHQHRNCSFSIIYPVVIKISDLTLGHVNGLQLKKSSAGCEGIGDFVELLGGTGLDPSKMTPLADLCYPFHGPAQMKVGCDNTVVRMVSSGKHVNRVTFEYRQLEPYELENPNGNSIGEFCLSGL

[2] = biological target: T2, Corticotropin-releasing factor receptor 2/Corticotropin-releasing factor-binding protein; experiment: Dose Response confirmation of uHTS hits for small molecule antagonists of the CRF-binding protein and CRF-R2 receptor complex.; type: functional; conditions: read-out: IC50_Mean
Cytochrome P450 2C9 = Cytochrome P450 2C9 (Homo sapiens, UniProt P11712)
Sequence of Cytochrome P450 2C9 (P11712 whole entry): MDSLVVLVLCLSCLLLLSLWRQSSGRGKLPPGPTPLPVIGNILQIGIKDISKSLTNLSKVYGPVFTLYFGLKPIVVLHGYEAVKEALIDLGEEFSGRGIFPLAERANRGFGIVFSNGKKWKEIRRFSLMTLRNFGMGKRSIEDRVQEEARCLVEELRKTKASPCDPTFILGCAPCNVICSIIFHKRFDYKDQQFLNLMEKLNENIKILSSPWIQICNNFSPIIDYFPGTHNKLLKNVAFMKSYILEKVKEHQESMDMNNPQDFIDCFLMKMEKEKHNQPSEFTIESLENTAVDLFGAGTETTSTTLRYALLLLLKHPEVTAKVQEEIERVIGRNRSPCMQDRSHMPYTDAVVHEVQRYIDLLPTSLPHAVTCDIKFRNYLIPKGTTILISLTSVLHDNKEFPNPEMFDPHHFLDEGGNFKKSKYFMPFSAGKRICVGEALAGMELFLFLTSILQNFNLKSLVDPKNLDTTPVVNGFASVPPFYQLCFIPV

Cytochrome P450 2C19 = Cytochrome P450 2C19 (Homo sapiens, UniProt P33261); experiment: Cytochrome panel assay with activity outcomes. Panel member name: p450-cyp2c19 Compounds with AC50 equal or less than 10 uM are considered active; type: functional
Sequence of Cytochrome P450 2C19 (P33261 whole entry): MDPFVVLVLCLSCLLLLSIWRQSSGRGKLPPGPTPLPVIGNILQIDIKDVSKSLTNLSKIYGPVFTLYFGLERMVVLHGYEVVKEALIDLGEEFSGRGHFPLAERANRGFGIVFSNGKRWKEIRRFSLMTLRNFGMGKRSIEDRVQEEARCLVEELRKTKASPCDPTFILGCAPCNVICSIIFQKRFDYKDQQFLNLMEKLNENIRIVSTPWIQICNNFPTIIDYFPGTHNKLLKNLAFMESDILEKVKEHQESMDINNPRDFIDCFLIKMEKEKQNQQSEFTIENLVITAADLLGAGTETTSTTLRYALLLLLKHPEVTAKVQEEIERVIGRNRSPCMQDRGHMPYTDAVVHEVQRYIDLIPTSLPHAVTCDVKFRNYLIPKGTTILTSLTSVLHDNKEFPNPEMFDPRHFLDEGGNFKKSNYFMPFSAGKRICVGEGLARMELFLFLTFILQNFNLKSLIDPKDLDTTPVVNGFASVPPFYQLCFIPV

Cytochrome P450 3A4 = Cytochrome P450 3A4 (Homo sapiens, UniProt P08684);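 further: CYP3A4 tested as one member of a cytochrome P450 panel screen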
Sequence of Cytochrome P450 3A4 (P08684 whole entry): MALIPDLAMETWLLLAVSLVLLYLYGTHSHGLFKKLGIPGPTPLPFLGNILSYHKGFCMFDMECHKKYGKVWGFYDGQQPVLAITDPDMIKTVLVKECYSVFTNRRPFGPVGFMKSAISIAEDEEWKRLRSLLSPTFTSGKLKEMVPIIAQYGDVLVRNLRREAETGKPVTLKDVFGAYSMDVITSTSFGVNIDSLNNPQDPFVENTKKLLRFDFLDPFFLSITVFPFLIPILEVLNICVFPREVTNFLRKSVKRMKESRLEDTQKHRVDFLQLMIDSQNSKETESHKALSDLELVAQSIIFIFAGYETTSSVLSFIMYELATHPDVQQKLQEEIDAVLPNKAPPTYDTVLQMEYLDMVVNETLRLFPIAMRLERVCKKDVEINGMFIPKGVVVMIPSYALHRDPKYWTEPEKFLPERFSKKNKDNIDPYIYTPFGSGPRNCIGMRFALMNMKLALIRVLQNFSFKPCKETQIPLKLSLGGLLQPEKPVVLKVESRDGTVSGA

Streptococcus = experiment: GAS UMAA2166 growth inhibition – luminescence, BacTiterGlo, counter-screen for streptokinase expression inhibitor project, dose response (AID 1915); type: functional, organism-based;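 further: potency for reduction of bacterial viability or growth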
[3] = Trypanosoma cruzi growth suppression in host cells – NIH3T3 host cells, beta-gal luminescence, confirmation (AID 2044); type: functional, cell-based;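 further: intracellular parasites grown in NIH/3T3 mouse fibroblasts as host cells; luminescent beta-galactosidase reporter signal from transgenic T. cruzi replicating inside host cells; inhibitors lower the luminescence signal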
Streptokinase A = biological target: T3, Streptokinase A (Streptococcus pyogenes serotype M1, UniProt P10520); experiment: viability-normalized secreted streptokinase activity reduction – plasminogen activation absorbance, OD405, dose response (AID 1914); type: functional, Streptococcus pyogenes M1 GAS;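 further: secreted streptokinase activity via plasminogen activation per viability signal from cell pellet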
T3 sequence (P10520 whole entry): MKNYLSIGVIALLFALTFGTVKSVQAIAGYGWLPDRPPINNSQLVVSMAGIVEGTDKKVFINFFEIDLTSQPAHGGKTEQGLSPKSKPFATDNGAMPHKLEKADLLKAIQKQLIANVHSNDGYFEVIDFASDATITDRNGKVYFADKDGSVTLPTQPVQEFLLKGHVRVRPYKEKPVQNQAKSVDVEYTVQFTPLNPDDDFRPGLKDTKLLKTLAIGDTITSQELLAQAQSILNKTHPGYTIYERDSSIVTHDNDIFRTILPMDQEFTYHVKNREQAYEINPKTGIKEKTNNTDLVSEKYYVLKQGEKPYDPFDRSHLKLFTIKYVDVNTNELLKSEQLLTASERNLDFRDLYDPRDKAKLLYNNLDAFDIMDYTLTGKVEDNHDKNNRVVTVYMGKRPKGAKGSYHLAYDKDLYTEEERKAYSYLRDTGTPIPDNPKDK

[4] = NIH3T3 cell viability loss – ATP luminescence, mouse fibroblasts, counter-screen, dose response (AID 2010); type: functional, cell-based;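 further: cells exposed to compound for about 90 hours before reading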
[5] = test system: Streptococcus sp. 'group A'; experiment: Streptococcus pyogenes SK(-)GAS viability under kanamycin – luminescence, BacTiterGlo, confirmation, counter-screen for streptokinase expression inhibitor project, dose response (AID 1900); type: functional, organism-based
[6] = Luminescence Cell-Based Dose Retest to Confirm Inhibitors of Cancer Stem Cells. [Related pubchem assays (depositor defined):AID2717, AID2721]; type: functional; conditions: Homo sapiens

Compound | AC50 (Cytochrome P450 1A2) | AC50 (Cytochrome P450 2C9) | AC50 (Cytochrome P450 2C19; read-out: AC50) | other results
N#CC1=C(N)OC2=C(C(=O)CCC2)C12CCC1(CC2)OCCO1 | 25.1 µM (inconclusive) |  |  | 
CC(C)(C)OC(=O)N1CCN(c2ccc(CNC(=O)c3ccc(Cl)cc3)cc2)CC1 |  |  |  | EC50 [1]: > 53 µM (inactive); IC50 [2]: > 47.1 µM (inactive)
COC(=O)c1ccccc1OCC(=O)N1CCN(c2ccc(OC)cc2)CC1 |  | 17.8 µM (inconclusive) |  | 
Clc1ccc(CSc2ncnc3c2ncn3[C@@H]2CCCCO2)cc1 | 1.58 µM (inconclusive) |  |  | 
O=S1(=O)[C@@H](c2ccccc2)[C@H](N2CCCCC2)[C@H]1[C@H]1C[C@H]2c3ccccc3[C@@H]1c1ccccc12 |  | 7.94 µM (inconclusive) |  | 
CCc1cc(C(=O)OC)c(NC(=O)CCCC(=O)O)s1 | 25.1 µM (inconclusive) | 28.2 µM (inconclusive) |  | 
CC(=O)Nc1cccc(C(=O)OCc2ccc(C(=O)Oc3ccc(Cl)cc3)cc2)c1 |  | 1.12 µM (inconclusive) |  | 
COc1ccc2oc(-c3ccc(C)c(NC(=O)c4ccc(N5CCOCC5)c([N+](=O)[O-])c4)c3)nc2c1 |  | 3.16 µM (inconclusive) | 5.62 µM (inconclusive) | 
O=C(O)c1ccccc1C(=O)NCc1ccc(F)cc1 |  |  | 28.2 µM (inconclusive) | 
Nc1cc(N)nc(SCC(=O)NNC(=O)c2ccc(Cl)cc2)n1 | 15.8 µM (inconclusive) | 28.2 µM (inconclusive) | 39.8 µM (inconclusive) | AC50 (Cytochrome P450 3A4): 14.1 µM (inconclusive)
O=S(=O)(N=C(Nc1ccccn1)c1ccccc1)c1ccccc1 | 14.1 µM (inconclusive) |  | 15.8 µM (inconclusive) | AC50 (Cytochrome P450 3A4): 28.2 µM (inconclusive)
C[C@H]1C2=C3C(CC[C@H]4C(OCc5ccc(F)cc5C(F)(F)F)OC[C@](C)([C@@H]34)N(C(=O)OC(C)(C)C)C2)C(CO)C1CO (stereo partly drawn) |  | 39.8 µM (inconclusive) | 39.8 µM (inconclusive) | 
O=C1c2ccccc2-c2ccc(NC(=O)[C@H]3CCCC[C@@H]3C(=O)O)cc21 | 1 µM (inconclusive) |  |  | 
CCOC(=O)c1c(C)n(C)c2ccc(OC(=O)c3ccco3)cc12 |  | 1.12 µM (inconclusive) |  | 
O=c1cnc2cncnc2n1Cc1ccc(F)cc1 |  |  | 39.8 µM (inconclusive) | AC50 (Cytochrome P450 3A4): 20 µM (inconclusive)
c1cncc(-c2cncnc2NC2CCNCC2)c1 | 12.6 µM (inconclusive) |  |  | 
O=C(/C=C/c1ccccc1)NC(NC(=S)Nc1cccc(Cl)c1)C(Cl)(Cl)Cl (stereo not drawn) |  |  |  | EC50 (Streptococcus): 6.3 µM (active); EC50 [3]: 1.68 µM (active); EC50 (Streptokinase A): > 150 µM (not active); EC50 [4]: > 60 µM (inconclusive); EC50 [5]: 3.62 µM (active)
CC(C)(C)C(=O)Nc1cccc(-c2nc3ccccc3c(=O)o2)c1 |  |  | 35.5 µM (inconclusive) | AC50 (Cytochrome P450 3A4): 25.1 µM (inconclusive)
CS(=O)(=O)Nc1cccc(-c2ccc3ncnc(NC4CC4)c3c2)c1 |  |  |  | AC50 (Cytochrome P450 2C19): inconclusive
O=C(CN1c2ccccc2Sc2ccccc21)NNC(=O)Nc1ccc(Cl)c(Cl)c1 |  |  |  | EC50 (Streptococcus): 5.49 µM (active); AC50 [6]: 3.05 µM (active); EC50 (Streptokinase A): > 150 µM (not active); EC50 [5]: 2.45 µM (active)
CCn1c(COc2ccc(C)cc2)nnc1SCc1ccc(C#N)cc1 | 28.2 µM (inconclusive) |  |  | EC50 (Streptococcus): > 150 µM (not active); EC50 (Streptokinase A): > 150 µM (not active); EC50 [5]: > 150 µM (not active)
O=C(COc1ccc([N+](=O)[O-])cc1)NCc1ccccc1 |  | 17.8 µM (inconclusive) | 7.94 µM (inconclusive) | 

Compound | AC50 (Cytochrome P450 1A2) | AC50 (Cytochrome P450 2C9) | AC50 (Cytochrome P450 2C19; read-out: AC50) | other results
O=c1c(-c2ccc(F)c(F)c2)nc2cncnc2n1-c1ccccc1 |  | 15.8 µM (inconclusive) |  | AC50 (Cytochrome P450 3A4): 20 µM (inconclusive)
CCN1CN=C(S)N(c2cc(C)ccc2C)C1 |  |  | 39.8 µM (inconclusive) | AC50 (Cytochrome P450 3A4): 20 µM (inconclusive)
COC(=O)c1[nH]c(C)c(C(=O)C2=C(O)C(=O)N(CCN(C)C)C2c2cccs2)c1C (stereo not drawn) |  |  | 14.1 µM (inconclusive) | 
O=C(Nc1cccnc1)c1ccc2snnc2c1 |  | 25.1 µM (inconclusive) | 17.8 µM (inconclusive) | 
CC(C)NC[C@@H](O)c1ccc(O)c2ncccc12 |  |  |  | AC50 (Cytochrome P450 2C19): inconclusive
CCN(CC)c1ccc(NC(=O)CN2CCN(c3ccccc3F)CC2)cc1 | 28.2 µM (inconclusive) |  |  | AC50 (Cytochrome P450 3A4): 15.8 µM (inconclusive)
Cc1cc(S(=O)(=O)c2cc3ccc(O)c(C)c3oc2=O)ccc1F |  |  |  | EC50 [1]: 5.8 µM (active)
Cn1c(SCC(=O)NC2CC2)nnc1-c1cccc(NC(=O)c2ccccc2F)c1 |  | 17.8 µM (inconclusive) |  | 
CCOc1ccc(OCCOCCN2CCc3ccccc3C2)cc1 | 20 µM (inconclusive) | 11.2 µM (inconclusive) |  | EC50 [3]: 0.124 µM (active); AC50 (Cytochrome P450 3A4): 25.1 µM (inconclusive); EC50 [4]: 21 µM (active)
CN(Cc1cc2ccccc2[nH]c1=O)S(C)(=O)=O | 28.2 µM (inconclusive) |  |  | 
CCC(C(=O)Nc1ccc(C(C)C)cc1)c1ccccc1 (stereo not drawn) |  |  |  | EC50 [1]: 6.87 µM (active)
Oc1cc(O)c2c(c1)O[C@H](c1ccc(O)c(O)c1)[C@@H](O)[C@@H]2c1c(O)cc(O)c2c1O[C@@H](c1ccc(O)c(O)c1)[C@H](O)C2 | 2.51 µM (inconclusive) |  |  | 
O=C1C[C@H](c2ccccc2)[C@@H](c2ccc(Br)cc2)O1 |  | 3.16 µM (inconclusive) |  | 
COCCn1c(=O)c(-c2ccc(F)cc2)nc2cnc(Oc3ccccc3)nc21 |  | 10 µM (inconclusive) |  | AC50 (Cytochrome P450 3A4): 15.8 µM (inconclusive)
NC(=O)Nc1n[nH]c(-c2ccccc2)n1 | 3.16 µM (inconclusive) |  |  | 
c1ccc(-c2csc(Nc3nc(N4CCOCC4)nc(N4CCOCC4)n3)n2)cc1 | 5.62 µM (inconclusive) | 3.16 µM (inconclusive) | 5.62 µM (inconclusive) | EC50 [3]: 0.104 µM (active); AC50 (Cytochrome P450 3A4): 10 µM (inconclusive); EC50 [4]: > 30 µM (not active)
CC(C)(C)C1CCc2c(C(=O)N/N=C/c3cccs3)csc2C1 (stereo not drawn) |  | 7.94 µM (inconclusive) |  | 
C=CCNC(=O)CC(=O)N/N=C/c1cccc(Br)c1 |  |  | 0.2 µM (inconclusive) | 
O=C(O)C1CCCN1C(=O)OCc1ccccc1 (stereo not drawn) |  |  | 15.8 µM (inconclusive) | 
N[C@H](C(=O)O)[C@@H]1[C@@H](C(=O)O)C1(F)F | 31.6 µM (inconclusive) |  |  | 
CC(C)C(NC(=O)OC(C)(C)C)C(=O)N1CCCC1C(=O)NC(Cc1ccccc1)C(N)=O (stereo not drawn) (Boc-Val-Pro-Phe-NH2; configuration not given here) | 2 µM (inconclusive) | 31.6 µM (inconclusive) | 1.12 µM (inconclusive) | AC50 (Cytochrome P450 3A4): 15.8 µM (inconclusive)
CS(=O)(=O)Nc1ccc(Cc2noc(-c3ccc4[nH]cc(CCN)c4c3)n2)cc1 [L-694247] |  | 31.6 µM (inconclusive) |  | 
